Values quoted from earlier work in patent US20040198708A1, “Formulations of mometasone and a bronchodilator for pulmonary administration” (priority 2000, published 2004).

Tests used:
HPA axis [1] = settings: mice, inhaled; Chapman et al. (1998)
HPA axis [2] = settings: humans, inhaled, dosages of up to 800 mcg daily; Bernstein et al. (1999)
[3] = tested on: patients with mild to moderate persistent asthma; settings: inhaled once daily, Nayak et al. (2000)

## C[C@@H]1C[C@H]2[C@@H]3CCC4=CC(=O)C=C[C@]4(C)[C@@]3(Cl)[C@@H](O)C[C@]2(C)[C@@]1(OC(=O)c1ccco1)C(=O)CCl [mometasone furoate, (11β,16α)-9,21-dichloro-17-[(2-furanylcarbonyl)oxy]-11-hydroxy-16-methylpregna-1,4-diene-3,20-dione]
HPA axis [1]
  Suppression of the HPA axis: has not been reported
HPA axis [2]
  HPA axis suppression: did not cause HPA axis suppression
[3]
  Effectiveness in treating asthma: effective
